Laboratory results from patent publication US20070224267A1, “Ambroxol for the treatment of painful conditions in the mouth and pharyngeal cavity” (priority 2002, published 2007).
Counter-ions that a name gives are not always drawn.

Key:
[1] = test system: patients with acute sore throat; assay: Clinical trial of suckable tablets containing 20 mg ambroxol hydrochloride vs placebo in acute sore throat (Example 1); assay type: in vivo
Protocol: A multi-centred, prospective, placebo-controlled, randomised double-blind trial was carried out over two days' treatment with up to 6 suckable tablets containing ambroxol hydrochloride per day. Patients: 218 patients (97 men, 121 women) with an average age of 39.4±15 years (range from 17-81 years) were recruited; of these 215 patients were treated: 107 with 20 mg of ambroxol and 108 with placebo. 26 patients stopped the treatment early (13 in each treatment group). The intent-to-treat (ITT) population consisted of 208 patients (105 treated with ambroxol and 103 given the placebo); 196 patients formed the per-protocol (PP) population (97 with test substance and 99 with placebo). For the drug safety analysis, all the patients treated were studied. Treatments: Double-blind treatment with up to 6 suckable tablets per day, which either contained 20 mg of ambroxol or constituted a placebo (suckable tablet without the active substance, but with a marked flavour of peppermint similar to the test substance). End points: The average pain reduction, weighted for time, during the first 3 hours after administration of the first suckable tablet, standardised to the degree of initial pain (SPIDnorm); moreover, the assessment of effectiveness and tolerance by the patient at the end of each day of treatment.

[2] = test system: patients with acute sore throat; assay: Clinical trial of suckable tablets containing 20 or 30 mg ambroxol hydrochloride vs placebo in acute sore throat (Example 2); assay type: in vivo; conditions: for average SPIDnorm (±SD) after the first suckable tablet: time-weighted average pain reduction in first 3 hours, standardised to initial pain, placebo 0.38±0.28
Protocol: A multi-centred, prospective, placebo-controlled, randomised double-blind trial was carried out over three days' treatment with up to 6 suckable tablets containing ambroxol hydrochloride per day. Patients: 331 ambulant patients with acute uncomplicated sore throats of at least moderate severity but with no bacterial pharyngitis were investigated. Treatments: Double-blind treatment with up to 6 suckable tablets per day containing either 20 mg or 30 mg of ambroxol hydrochloride or constituting a placebo (suckable tablet without the active substance, but again with a marked flavour of peppermint similar to the test substance). End points: The average pain reduction, weighted for time, during the first 3 hours after administration of the first suckable tablet, standardised to the degree of initial pain (SPIDnorm); moreover, the assessment of effectiveness and tolerance by the patient at the end of each day of treatment.

[3] = up to 6 suckable tablets of 20 mg per day, two days, vs placebo

Nc1c(Br)cc(Br)cc1CN[C@H]1CC[C@H](O)CC1 [ambroxol hydrochloride, trans-4-[(2-amino-3,5-dibromobenzyl)amino]cyclohexano hydrochloride]
average SPIDnorm (±SD) after the first suckable tablet ([1]; 20 mg suckable tablet, time-weighted average pain reduction in first 3 hours, standardised to initial pain, placebo 0.28±0.25): 0.39±0.27 | assessment of effectiveness by the patient at the end of each day of treatment [1, 3]: statistically significantly larger number of patients reported a higher degree of effectiveness | tolerance [1, 3]: tolerated just as well as the placebo | average SPIDnorm (±SD) after the first suckable tablet ([2]; 20 mg suckable tablet): 0.53±0.28 | average SPIDnorm (±SD) after the first suckable tablet ([2]; 30 mg suckable tablet): 0.50±0.30 | assessment of effectiveness by the patient at the end of each day of treatment ([2]; up to 6 suckable tablets of 20 or 30 mg per day, three days, vs placebo): statistically significantly larger number of patients reported a higher degree of effectiveness | tolerance ([2]; up to 6 suckable tablets per day, three days, all dosages (20 and 30 mg), vs placebo): tolerated just as well as the placebo
